Measured values: patent US20070032502A1, “Quinazoline derivatives useful in cancer treatment” (Schering Corporation, priority 2005, published 2007)
Read-outs that look alike come from different tables or passages of the source. Values belong to the compound of their own block, whether it stands above or below them.

Columns and labels:
MB468 = assay: Proliferation assay (Calcein AM viability, 72 hours); assay type: cell-based
Procedure: This assay measures the growth suppression effects of small molecules in cells with mutant p53 vs. p53 null background. It uses Calcein AM to measure cellular viability. Cells (p53 null and mutant) are harvested and plated at 5000 cells per well in a 96-well tissue culture plate. The volume of cells in growth media is 100 µl. Serial dilutions (2× concentration) of compounds are then made and transferred to the plate of cells. The volume of compounds in the growth media is 100 μL. This dilution of compound with cells gives a 1× final dilution of compound (200 μL total volume). Plates are then incubated at 37° C. for 72 hours. Media is then poured off and Calcein AM is added at the appropriate concentration and the plates are incubated in the dark for 15 minutes and read for fluorescence. […] Compounds having EC50 values of 6 uM or higher have been assigned the letter “D”. These letter rating has been used throughout in the data tables above.

[1] = biological target: GST-p53 DNA binding domain (aa 92-aa 312) (Homo sapiens, UniProt P04637); assay: Scintillation Proximity Assay (SPA), displacement of 3H STANDARD COMPOUND; conditions: for remaining activity at 2 µg/mL: 1 h
Source text: Most of the oncogenic mutants of the tumor suppressor protein p53 lack sequence specific DNA binding activity at physiological temperature due to conformational changes in the DNA binding domain. Small molecules and peptide which bind to the p53 DNA binding domain stabilize the conformation and restore DNA binding activity to mutant p53 protein (Science 286, 2507-2510, 1999; PNAS, 99, 937-942, 2002). Using ^3H STANDARD COMPOUND (which is ^3H of the compound #1 of the present invention; the * Carbon atom is the one labeled; structure shown below), [drawing 2234] a radio labeled small molecule which binds to p53, and the GST-p53 DNA binding domain (aa 92-aa 312), we have developed a quantitative screening assay. The assay is based on Scintillation Proximity Assay (SPA) technology, developed by Amersham Biosciences to measure molecular interactions. Briefly, the complex of GST-p53, ^3H STANDARD and Glutathione-SPA beads (Amersham Biosciences) are incubated with mixing for 1 hr at room temperature in the presence of the novel compounds to be screened. The signal is read on Microbeta. The compounds which have the ability to displace ^3H STANDARD COMPOUND are selected. Such molecules will stabilize the conformation and restore DNA binding activity to mutant p53 protein.
The above assay was used to determine the ability of the compounds of this invention to restore DNA binding activity to mutant p53 and the results for selected compounds have been given above in various tables.
A letter rating corresponding to % Residual total binding (T) @ 2 ug/mL of drug (i.e., compound of the present invention) from this assay have been assigned as follows: Compounds having % Residual T values of from 0% to less than 20% have been assigned the letter “A”. Compounds having % Residual T values of from 20% to less than 40% have been assigned the letter “B”. Compounds having % Residual T values of from 40% to less than 80% have been assigned the letter “C”. Compounds having % Residual T values of 80% or higher have been assigned the letter “D”. The exact % Residual T values @ 2 ug/mL for some illustrative compounds are shown below: […]

pancreatic cells = assay: Potentiation of growth suppression with temozolomide (proliferation assay, temozolomide IC50); assay type: cell-based; conditions: for IC50: Homo sapiens, TMZ alone
Procedure: (§1) That the compounds of the present invention potentiate the growth suppression activity of temozolomide is illustrated by the fact that the compounds lower the temolozomide IC50 in various cell lines. The proliferation assay used is similar to that set forth above, and comprises the following general steps. • TMZ is diluted 2 fold in complete medium. • Cells are harvested and placed in each well with diluted TMZ. Cell conc. is 5000 cells per well in complete medium. • Appropriate concentration of compounds of present invention are then added to each well in combination with diluted TMZ. • Plates are incubated at 37° C. for 72 hrs. • Medium is poured off and 50 μL per well of Calcein AM (10 uM is added. Plate is then read in the fluorescent plate reader.
The extent of increase can be quantitated as is shown below in FIG. 5.

U87 = assay: Potentiation of growth suppression with temozolomide (proliferation assay, temozolomide IC50), U87 glioma cells; assay type: cell-based; conditions: Homo sapiens, U-87 MG, p53 wild, TMZ alone
Procedure: as §1

LN 18 = assay: Potentiation of growth suppression with temozolomide (proliferation assay, temozolomide IC50), LN 18 glioma cells; assay type: cell-based; conditions: Homo sapiens, p53 mutant, TMZ alone
Procedure: as §1

[2] = system: Human tumor DLD1 cells containing mutant p53; assay: Soft agar assay (colony outgrowth); assay type: cell-based; conditions: DLD-1, 10-16 days
Procedure: This method assesses the ability of cells to grow in the absence of adhesion, which is a characteristic of tumorigenic cell lines.
Human tumor DLD1 cells containing mutant p53 are suspended in growth medium containing 0.3% agarose and an indicated concentration of small molecule. The solution is overlayed onto growth medium solidified with 0.6% agarose containing the same concentration of the small molecule as the top layer. After the top layer is solidified the plates are incubated for 10-16 days at 37° C. under 5% CO2 to allow colony outgrowth. After incubation, colonies are stained by overlaying the agar with a solution of MTT (3-[4,5-dimethyl-thiazol-2-yl]-2,5-diphenyltetrazolium bromide; Thiazolyl blue; […] in PBS). Colonies are counted to measure growth and efficacy of the small molecule.

[3] = MB468, read-out: PROLIFERATION ASSAY EC50 MB468
[4] = read-out: SPA ASSAY (% residual T @ 2 ug/mL of drug)
[5] = MB168 [sic], read-out: PROFILERATION ASSAY EC50 MB168
[6] = MB468 cells, read-out: PROFILE-RATION ASSAY EC50 MB468
[7] = 2 ug/mL of drug, lower is better, read-out: SPA ASSAY % Residual T @ 2 ug/mL of drug (Average of)
[8] = 72 h, MB468 cells, 72 hours, read-out: PROLIFERATION ASSAY EC50 MB468
[9] = 72 h, MB468 cells, 72 hours, read-out: EC50 rating according to the proliferation assay (MB468)
[10] = 2 ug/mL of drug, lower is better, read-out: % Residual T @ 2 ug/mL rating according to scintillation proximity assay (SPA)

Sequence of GST-p53 DNA binding domain (aa 92-aa 312) (P04637 92-312): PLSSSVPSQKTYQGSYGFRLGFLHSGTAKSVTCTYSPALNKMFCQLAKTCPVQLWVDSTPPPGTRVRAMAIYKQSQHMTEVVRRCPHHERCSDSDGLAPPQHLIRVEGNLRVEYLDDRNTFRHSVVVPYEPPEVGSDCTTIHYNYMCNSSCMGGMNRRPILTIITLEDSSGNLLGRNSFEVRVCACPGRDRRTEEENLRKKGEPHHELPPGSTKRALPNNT

SMILES: CN(C)CCCNc1nc(CN2CCN(C(=O)Nc3ccc(C#N)cc3)CC2)nc2ccccc12 [Example 28-13]
EC50 (MB468; [5]): > 6 µM
SPA ASSAY (% Residual T @ 2 ug/mL of drug (average of)) ([1]; 2 ug/mL of drug): C (Compounds having % Residual T values of from 40% to less than 80% have been assigned the letter “C”)

SMILES: CCC(C)(C)C1CCC(N2CCN(Cc3nc(NCCCN(C)C)c4ccccc4n3)CC2)C1 (stereo not shown) [Example 25-73]
EC50 (MB468; [6]): 4 to 6 µM
SPA Assay (% residual T @ 2 ug/mL of drug) ([1]; 2 ug/mL of drug): C (Compounds having % Residual T values of from 40% to less than 80% have been assigned the letter “C”)

SMILES: CN(C)CCCNc1nc(CN2CCN(Cc3cccc4ccccc34)CC2)nc2ccccc12 [Example 25-36]
EC50 (MB468; [8]): 2 µM
EC50 (MB468; [6]): 4 to 6 µM
SPA Assay (% residual T @ 2 ug/mL of drug) ([1]; 2 ug/mL of drug): B (Compounds having % Residual T values of from 20% to less than 40% have been assigned the letter “B”)
remaining activity at 2 µg/mL [1, 7]: 27.9%
sensitivity of pancreatic cancer cells to temozolomide (pancreatic cells; in combination with temozolomide, 72 hrs): increase in sensitivity

SMILES: CN(C)CCCNc1nc(CN2CCN(Cc3cccc4cc[nH]c34)CC2)nc2ccccc12 [Example 25-29]
EC50 (MB468; [6]): 4 to 6 µM
SPA Assay (% residual T @ 2 ug/mL of drug) ([1]; 2 ug/mL of drug): B (Compounds having % Residual T values of from 20% to less than 40% have been assigned the letter “B”)
remaining activity at 2 µg/mL [1, 7]: 37.9%

SMILES: CN(C)CCCNc1nc(CN2CCN(C(c3ccccc3)c3ccc(OC(F)(F)F)cc3)CC2)nc2ccccc12 (single isomer, unassigned; (+)) [11 isomer 1, (+)-N,N-DIMETHYL-N′-[2-{4-[PHENYL-(4-TRIFLUOROMETHOXYPHENYL)METHYL]-PIPERAZIN-1-YLMETHYL}QUINAZOLIN-4-YL]PROPANE-1,3-DIAMINE]
EC50 (MB468; [9]): < 2 µM
remaining activity at 2 µg/mL [1, 10]: 20 to 40%

SMILES: CN(C)CCCNc1nc(CN2CCN(C(c3ccc(Cl)cc3)c3ccc(Cl)cc3)CC2)nc2ccccc12 [Example 1, N′-(2-{4-[BIS-(4-CHLOROPHENYL)METHYL]PIPERAZIN-1-YLMETHYL}QUINAZOLIN-4-YL)-N,N-DIMETHYLPROPANE-1,3-DIAMINE]
EC50 (MB468; [9]): < 2 µM
EC50 (MB468; [8]): 1.1 µM
remaining activity at 2 µg/mL [1, 10]: 0 to 20%
remaining activity at 2 µg/mL [1, 7]: 16.1%
IC50 [2]: 0.39 µM

SMILES: COC(=O)[C@@H](Nc1nc(CN2CCN(C(=O)Nc3ccc(C(C)C)cc3)CC2)nc2ccccc12)C(C)C [Example 20-29]
EC50 (MB468; MB468 cells, read-out: PROLIFERATION ASSAY EC50 MB468): 4 to 6 µM
SPA Assay (% residual T @ 2 ug/mL of drug) ([1]; 2 ug/mL of drug): B (Compounds having % Residual T values of from 20% to less than 40% have been assigned the letter “B”)
remaining activity at 2 µg/mL [1, 7]: 39.5%

SMILES: CN(C)CCCOc1nc(CN2CCN(C(c3ccc(Cl)cc3)c3ccc(Cl)cc3)CC2)nc2ccccc12 [Example 16, [3-(2-{4-[BIS-(4-CHLOROPHENYL)METHYL]PIPERAZIN-1-YLMETHYL}QUINAZOLIN-4-YLOXY)PROPYL]DIMETHYLAMINE]
EC50 (MB468; 72 h, read-out: EC50 rating according to the proliferation assay (MB468)): > 6 µM
remaining activity at 2 µg/mL ([1]; read-out: % Residual T @ 2 ug/mL rating according to scintillation proximity assay (SPA)): > 80%

SMILES: CN(C)CCCNc1nc(CN2CCN(C(c3ccccc3)c3ccc(OC(F)(F)F)cc3)CC2)nc2ccccc12 (stereo not shown) [Example 11-1]
EC50 (MB468; MB468 cells, 72 hours, read-out: PROLIFERATION ASSAY EC50 MB468): 1.4 µM
remaining activity at 2 µg/mL [1, 7]: 27.9%

Continued, in another order:

remaining activity at 2 µg/mL [1, 4]: > 80%
SMILES: CN(CCc1ccccn1)c1nc(CN2CCN(C(c3ccc(Cl)cc3)c3ccc(Cl)cc3)CC2)nc2ccccc12 [Example 30-14]
EC50 (MB468; [3]): 4 to 6 µM

remaining activity at 2 µg/mL [1, 4]: > 80%
SMILES: CCN(CC)C(=O)C1CCCN(c2nc(CN3CCN(C(c4ccc(Cl)cc4)c4ccc(Cl)cc4)CC3)nc3ccccc23)C1 (stereo not shown) [Example 30-25]
EC50 (MB468; [3]): > 6 µM

remaining activity at 2 µg/mL [1, 4]: 40 to 80%
SMILES: CN(C)[C@@H]1CCN(c2nc(CN3CCN(C(c4ccc(Cl)cc4)c4ccc(Cl)cc4)CC3)nc3ccccc23)C1 [Example 30-26]
EC50 (MB468; [3]): > 6 µM

remaining activity at 2 µg/mL [1, 4]: > 80%
SMILES: COC(=O)C1CCN(c2nc(CN3CCN(C(c4ccc(Cl)cc4)c4ccc(Cl)cc4)CC3)nc3ccccc23)CC1 [Example 30-29]
EC50 (MB468; [3]): 4 to 6 µM

remaining activity at 2 µg/mL [1, 4]: > 80%
SMILES: OC1CCN(c2nc(CN3CCN(C(c4ccc(Cl)cc4)c4ccc(Cl)cc4)CC3)nc3ccccc23)CC1 [Example 30-27]
EC50 (MB468; [3]): 4 to 6 µM

remaining activity at 2 µg/mL [1, 4]: > 80%
SMILES: Clc1ccc(C(c2ccc(Cl)cc2)N2CCN(Cc3nc(N4CCOCC4)c4ccccc4n3)CC2)cc1 [Example 30-3]
EC50 (MB468; [3]): > 6 µM

remaining activity at 2 µg/mL [1, 7]: 29.9%
SMILES: CN(C)CCCNc1nc(CN2CCN(C(=O)Nc3ccc(Cl)c(Cl)c3)CC2)nc2ccccc12 [Example 28-39]
EC50 (MB468; [5]): 4 to 6 µM
SPA ASSAY (% Residual T @ 2 ug/mL of drug (average of)) ([1]; 2 ug/mL of drug): B (Compounds having % Residual T values of from 20% to less than 40% have been assigned the letter “B”)

IC50 (U87): 2540 µM
IC50 (LN 18): 2700 µM
SMILES: Cn1nnc2c(C(N)=O)ncn2c1=O [TMZ, temozolomide]
IC50 (pancreatic cells; MIA PaCa-2, Miapaca-2, Pancreas, p53 mutant): 3320 µM
IC50 (pancreatic cells; Capan-1, Pancreas, p53 mutant): 2860 µM
IC50 (pancreatic cells; Capan-2, Pancreas, p53 wild): 4310 µM

remaining activity at 2 µg/mL [1, 4]: > 80%
SMILES: O=C(C1CCCO1)N1CCN(c2nc(CN3CCN(C(c4ccc(Cl)cc4)c4ccc(Cl)cc4)CC3)nc3ccccc23)CC1 (stereo not shown) [Example 30-22]
EC50 (MB468; [3]): > 6 µM

remaining activity at 2 µg/mL [1, 7]: 38%
SMILES: COc1ccc(NC(=O)N2CCN(Cc3nc(NCCCN(C)C)c4ccccc4n3)CC2)cc1 [Example 28-20]
EC50 (MB468; [5]): > 6 µM
SPA ASSAY (% Residual T @ 2 ug/mL of drug (average of)) ([1]; 2 ug/mL of drug): B (Compounds having % Residual T values of from 20% to less than 40% have been assigned the letter “B”)

remaining activity at 2 µg/mL [1, 4]: > 80%
SMILES: NC(=O)C1CCN(c2nc(CN3CCN(C(c4ccc(Cl)cc4)c4ccc(Cl)cc4)CC3)nc3ccccc23)CC1 [Example 30-28]
EC50 (MB468; [3]): > 6 µM

remaining activity at 2 µg/mL [1, 4]: 40 to 80%
SMILES: O=c1[nH]c2ccccc2n1C1CCN(c2nc(CN3CCN(C(c4ccc(Cl)cc4)c4ccc(Cl)cc4)CC3)nc3ccccc23)CC1 [Example 30-30]
EC50 (MB468; [3]): 4 to 6 µM
